# Measurements published in patent US8349309B2, “Polymeric coupling agents and pharmaceutically-active polymers made therefrom” (Interface Biologics Inc., priority 2004, dated 2013).
# System: Pseudomonas aeruginosa
# Test: Macro-dilution minimum inhibitory concentration (MIC) assay
# Assay type: cell-based
# Experimental: Minimum inhibitory concentration (MIC) assays were used to evaluate the antimicrobial activity of incubating solutions obtained from drug polymer biodegradation studies against P. aeruginosa. Turbidity of each culture was recorded to evaluate the inhibitory properties of degradation solution of drug polymers.
# The same NF polymer incubation solutions assayed via HPLC were also evaluated for antimicrobial activity using a biological assay. A macro-dilution minimum inhibitory concentration (MIC) assay was employed to determine the concentration of antimicrobial (norfloxacin) that would inhibit the growth of a pathogen often associated with device-related infections, Pseudomonas aeruginosa. […] Incubation solutions from both enzyme and buffer control treatment of NF polymer were used in a biological assay matrix that was designed to estimate the concentration of norfloxacin as a function of incubation time and treatment.
substance,measurement,value
"1-ethyl-6-fluoro-1,4-dihydro-4-oxo-7-piperazine-quinoline-3-carboxylic acid [norfloxacin]",MIC,0.8 mu g/mL
